Data on 8 compounds can be found in article PMC3713598, “Renal Protective Role of Xiexin Decoction with Multiple Active Ingredients Involves Inhibition of Inflammation through Downregulation of the Nuclear Factor-κB Pathway in Diabetic Rats” (Evidence-based Complementary and Alternative Medicine : eCAM, 2013).

SMILES strings stand for the structures. Like-named read-outs stand apart in the source and are kept apart here.

Data set [1] is described as follows: Pharmacokinetics of XXD ingredients in diabetic rat plasma (LC-MS/MS). The format is in vivo. As to conditions: for Tmax / AUC(0-t) / Cmax: male, Sprague-Dawley, po; for Tmax / shape of plasma concentration-time curve: after ig administration of XXD for 12 weeks; for Tmax: diabetic rat plasma, read-out: time of peak concentrations (converted); for AUC(0-t) / Cmax: rat. The method, then: Male Sprague-Dawley rats (90−100 g) were purchased from the Shanghai Slac Laboratory Animal Co. (Shanghai, China). The rats were housed in an air-conditioned room at 22–24°C under a 12-h dark/light cycle and were given food and water at libitum. All animal experiments were conducted in accordance with the institutional guidelines for the care and use of laboratory animals at Shanghai University of TCM. After 1-week adaptation, animals were divided into a normal control (NC) group fed a standard diet and a high-fat group received a high-fat diet. After 4 weeks, rats on the high-fat diet were treated with streptozotocin (40 mg/kg, intraperitoneal injection). […] In the clinical practice of TCM, XXD is usually prescribed at a daily dose of 46 g of herbal materials (amount to 12 g extract) for diabetic patient. When this human dose was converted into an animal dose (a person of 60 kg, and a conversion factor of 6.25 between human and rat), it was equivalent to the low dose (1.25 g/kg extract) used in this study. NC and DM were treated with vehicle (normal saline) in a matched volume. All the rats were administered the drugs via intragastric gavage (ig) once a day, for 12 weeks.
The rats treated with XXD for 12 weeks were fasted with free access to water for 12 h before the PK experiments. Blood samples were collected before dosing and at 0, 0.25, 0.5, 1, 2, 4, 6, 12, and 24 h following administration. A validated liquid chromatography-tandem mass spectrometry (LC-MS/MS) method was applied to simultaneously determine the concentration of 11 ingredients (coptisine, jatrorrhizine, berberine, palmatine, baicalin, baicalein, wogonoside, wogonin, rhein, emodin, and aloeemodin) in blood plasma. The plasma concentration-time data were analysed by noncompartmental methods with the WinNonLin software package (Pharsight Corporation, Mountain View, CA, USA) to determine PK parameters.

Data set [2] has as its system diabetic nephropathy. As to conditions: cited from earlier work.
Setting [3] is: XXD 1.25 g/kg intragastric gavage for 12 weeks, diabetic rats, plasma, mean ± SD n = 8, read-out: AUC0–24 h.
Where [4] appears, read: XXD 1.25 g/kg intragastric gavage for 12 weeks, diabetic rats, plasma, mean ± SD n = 8, read-out: C max.
[5] abbreviates: XXD 2.5 g/kg intragastric gavage for 12 weeks, diabetic rats, plasma, mean ± SD n = 8, read-out: AUC0–24 h.
[6] abbreviates: XXD 2.5 g/kg intragastric gavage for 12 weeks, diabetic rats, plasma, mean ± SD n = 8, read-out: C max.

Consider `O=C1c2cccc(O)c2C(=O)c2c(O)cc(CO)cc21` [aloeemodin], for which the “plasma concentration relative to LLOQ” value in data set [1] (at about 0.5–2 h after ig XXD, below the LLOQ at other times) is “slightly higher than the lower limit of quantification”.

Consider `Cc1cc(O)c2c(c1)C(=O)c1cc(O)cc(O)c1C2=O` [Emodin, emodin], for which the anti-DN effects entry in data set [2] was “exhibited anti-DN effects”. The Tmax in data set [1] (in vivo) was 30 min. Also, the AUC(0-t) amounted to 61 ± 8 ng·h/mL in data set [1] (in vivo, XXD 1.25 g/kg intragastric gavage for 12 weeks, diabetic rats, plasma, mean ± SD n = 8, read-out: AUC0–24 h) and 119 ± 25 ng·h/mL in data set [1] (in vivo, XXD 2.5 g/kg intragastric gavage for 12 weeks, diabetic rats, plasma, mean ± SD n = 8, read-out: AUC0–24 h). Further, the Cmax in data set [1] (in vivo, XXD 1.25 g/kg intragastric gavage for 12 weeks, diabetic rats, plasma, mean ± SD n = 8, read-out: C max) amounted to 13 ± 7 ng/mL; in data set [1] (in vivo, XXD 2.5 g/kg intragastric gavage for 12 weeks, diabetic rats, plasma, mean ± SD n = 8, read-out: C max), 22 ± 9 ng/mL.

Take `O=C(O)[C@H]1O[C@@H](Oc2cc3oc(-c4ccccc4)cc(=O)c3c(O)c2O)[C@H](O)[C@@H](O)[C@@H]1O` [Baicalin, baicalin]: in data set [2], the anti-DN effects entry is reported as “exhibited anti-DN effects”. Moreover, the “renal TGF-β1 protein expression” value in data set [2] is “downregulate”. Also, in data set [1] (diabetic rats), the “shape of plasma concentration-time curve” value is on record as “double peaks”. Moreover, the Tmax in data set [1] is 10 min. The values for the AUC(0-t) in data set [1] (setting [3]) and in data set [1] (setting [5]) were 4700 ± 1730 ng·h/mL and 16100 ± 9600 ng·h/mL, respectively. The figures for the Cmax in data set [1] (setting [4]) and in data set [1] (setting [6]) were 1560 ± 570 ng/mL and 4310 ± 1710 ng/mL, respectively.

In the case of `O=C(O)c1cc(O)c2c(c1)C(=O)c1cccc(O)c1C2=O` [Rhein, rhein], the anti-DN effects entry in data set [2] was “exhibited anti-DN effects”. For the same compound, the “renal TGF-β1 protein expression” value in data set [2] was “downregulate”. Also, the Tmax in data set [1] is 10 min. For the same compound, the AUC(0-t) in data set [1] (setting [3]) is 1100 ± 216 ng·h/mL; in data set [1] (setting [5]), 2790 ± 937 ng·h/mL. Also, the Cmax was 961 ± 430 ng/mL in data set [1] (setting [4]) and 1750 ± 514 ng/mL in data set [1] (setting [6]).

In data set [1] (in vivo, 1.25 g/kg), `COc1cc2c(cc1OC)-c1cc3ccc(OC)c(OC)c3c[n+]1CC2` [Palmatine, palmatine] showed an AUC(0-t) of 113 ± 69 ng·h/mL and a Cmax of 17 ± 13 ng/mL. In data set [1] (in vivo, 2.5 g/kg), this compound registered an AUC(0-t) of 312 ± 197 ng·h/mL and a Cmax of 29 ± 18 ng/mL.

Turning to `COc1c(O[C@@H]2O[C@H](C(=O)O)[C@@H](O)[C@H](O)[C@H]2O)cc(O)c2c(=O)cc(-c3ccccc3)oc12` [Wogonoside, wogonoside], the “shape of plasma concentration-time curve” value in data set [1] (diabetic rats) was “double peaks”. The Tmax in data set [1] is 10 min. Moreover, the AUC(0-t) in data set [1] (setting [3]) stood at 3460 ± 894 ng·h/mL; in data set [1] (setting [5]), 8880 ± 2990 ng·h/mL. Further, the Cmax in data set [1] (setting [4]) was found to be 1140 ± 321 ng/mL; in data set [1] (setting [6]), 2240 ± 475 ng/mL.

As for `COc1c(O)cc(O)c2c(=O)cc(-c3ccccc3)oc12` [Wogonin, wogonin], the Tmax in data set [1] was 10 min. The AUC(0-t) in data set [1] (setting [3]) came to 154 ± 71 ng·h/mL; in data set [1] (setting [5]), 423 ± 307 ng·h/mL. In addition, the Cmax was found to be 47 ± 38 ng/mL in data set [1] (setting [4]) and 149 ± 86 ng/mL in data set [1] (setting [6]).

As for `COc1cc2c(cc1O)CC[n+]1cc3c(OC)c(OC)ccc3cc1-2` [Jatrorrhizine, jatrorrhizine], in data set [1] (diabetic rats), the “shape of plasma concentration-time curve” value is listed as “double peaks”. Moreover, the AUC(0-t) in data set [1] (setting [3]) worked out at 172 ± 57 ng·h/mL; in data set [1] (setting [5]), 201 ± 152 ng·h/mL. Besides, the Cmax in data set [1] (setting [4]) is 14 ± 9 ng/mL; in data set [1] (setting [6]), 21 ± 13 ng/mL.
